# From patent US8980846B2, “Composition containing styraxlignolide A or the aglycone thereof as an active ingredient for preventing or treating asthma” (Korea Research Institute of Bioscience and Biotechnology, priority 2010, dated 2015)
# Like-named read-outs stand apart in the source and are kept apart here.
# What was measured:
# [1] = Body weight in asthma-induced mice; type: in vivo, Balb/c female mice
# Method: (§1) To prepare bronchial asthma-induced experimental animals, six-week-old Balb/c female mice of mean weight about 20 g were used. After one week of adaptation, individuals which had no observed abnormality on a basic physical examination were targeted. 200 μL of phosphate buffered saline (PBS)(pH 7.4) in which 2 mg of aluminum hydroxide (A8222, Sigma, St. Louis, Mo.) and 20 μg of ovalbumin (A5503, Sigma, St. Louis, Mo.) were suspended was injected into the peritoneal cavity at two-week intervals to result in sensitization. On days 28 to 30 after the first intraperitoneal administration of ovalbumin, inhalation challenge was performed for 30 min with 1% ovalbumin using an ultrasonic atomizer. 24 hours after the last antigen administration, airway hyperresponsiveness was measured. After 24 hours, a lethal dose of pentobarbital (Entobar®, Hanlim Pharm Co., Ltd.) was administered, body weight measurement and bronchotomy were performed, and bronchoalveolar lavage was performed with a total 1.2 mL of physiological saline, and then, samples were collected. […] Eight white mice were used for each group. Experimental groups for homoegonol were a group (hE7.5) in which animals were orally administered with 7.5 mg/kg homoegonol 1 hour prior to ovalbumin inhalation, a group (hE15) in which animals were orally administered with 15 mg/kg homoegonol 1 hour prior to ovalbumin inhalation, and a group (hE30) in which animals were orally administered with 30 mg/kg homoegonol 1 hour prior to ovalbumin inhalation, and five white mice were used for each group.
# (§2) To determine an effect of styraxlignolide A on reduction in body weight in asthma-induced mice, body weight of each mouse prepared in Example 2 was measured. For statistical analyses for all measurements, means and standard errors (mean±S.E.) according to a number of variables were calculated, and comparison between each group was analyzed by performing a Mann-whitney U test using SPSS 10.0. Statically significance was accepted at p<0.05.
# as §2, with “homoegonol” for “styraxlignolide A”
# IL-17 = IL-17 in bronchoalveolar lavage fluid; type: in vivo, Balb/c female mice; settings: asthma-induced mice, homoegonol study; 30 mg/kg PO
# Method: as §1
# (§3) To examine the effect of homoegonol on airway remodeling, generation of TGF-β1 and IL-17 in bronchoalveolar lavage fluid was measured.
# ovalbumin-specific IgE = test: IgE levels in serum and bronchoalveolar lavage fluid (ELISA); type: in vivo, Balb/c female mice; settings: asthma-induced mice
# Method: as §1
# To measure serum and bronchoalveolar lavage fluid ovalbumin-specific IgE levels caused by administration of styraxlignolide A, an immunoenzyme technique was used. 20 μg/mL of ovalbumin was dissolved in a 0.1 M NAHCO3 buffer (pH 8.3), and was placed into a 96-well flat bottom ELISA plate to be coated at 4° C. overnight. Non-specific binding was blocked with PBS containing 1% bovine serum albumin, and a serum sample was diluted 1:400 and was allowed to react at room temperature for 2 hours. Then, the plate was washed well, and anti-mouse IgE monoclonal antibody was diluted 1:300 and was allowed to react for 2 hours. Then, HRP-conjugated goat anti-rat IgG polyclonal antibody which was coupled to peroxidase was diluted 1:4000 and was allowed to react at room temperature for 1 hour, and then, was washed. For color development, 3,3′,5,5′-tetramethylbezidine substrate was allowed to react, and the spectroscopic absorbance was measured at 650 nm.
# To measure IgE levels which are correlated with severity of asthma to examine the effect of homoegonol on asthma, IgE levels in serum and bronchoalveolar lavage fluid were measured according to the method in <Experimental Example 4>.
# [2] = tested on: airway hyperresponsiveness; test: Airway hyperresponsiveness, Penh by one chamber plethysmography after methacholine inhalation; type: in vivo, Balb/c female mice; settings: asthma-induced mice; for Penh values: homoegonol study, 30 mg/kg PO
# Method: as §1, with “Experimental groups for homoegonol were a group (hE7.5) in which animals were orally administered with 7.5 mg/kg homoegonol 1 hour prior to ovalbumin inhalation, a group (hE15) in which animals were orally administered with 15 mg/kg homoegonol 1 hour prior to ovalbumin inhalation, and a group (hE30) in which animals were orally administered with 30 mg/kg homoegonol 1 hour prior to ovalbumin inhalation, and five white mice were used for each group.” left out
# The effect of styraxlignolide A on airway hyperresponsiveness caused by asthma occurrence was examined by measuring airway resistance with one chamber plethysmography (All medicus, Seoul, Republic of Korea) and degree of airway resistance was assessed by measuring Penh (enhanced pause) values. The baseline value was measured under a normal respiratory condition, and then, PBS was inhaled using an ultrasonic atomizer for 3 min, and Penh values were measured over 3 min. […] Louis, Mo.) which is used in general methods for diagnosis of bronchial asthma were inhaled and Penh values were measured. Penh value is shown in the following Equation 1, and the resulting Penh value was expressed as a percent increase in Penh after inhalation of each concentration of methacholine. The baseline Penh (saline challenge) was expressed as 100%.
# Te: expiratory time (sec), the time from inspiration to the next inspiration
# RT: relaxation time, the elapsed time between the beginning of the expiration and the moment when the remaining 30% of the tidal volume has been reached during expiration
# PEF: Peak expiration flow
# PIF: Peak inspiration flow
# To examine the effect of homoegonol on airway hyperresponsiveness caused by asthma occurrence, Penh value was measured according to the method in <Experimental Example 2>.
# [3] = tested on: inflammatory cells in bronchoalveolar lavage fluid; test: Inflammatory cell counts in bronchoalveolar lavage fluid (Diff-Quick staining); type: in vivo, Balb/c female mice; settings: asthma-induced mice, styraxlignolide A study
# goblet cells = test: Ratio of goblet cells to bronchial epithelial cells (PAS staining); type: in vivo, Balb/c female mice; settings: asthma-induced mice
# Method: as §1
# Lungs removed from each individual were subjected to conventional formalin fixation and paraffin embedding, and permanent section slides of 4 μm thickness were prepared, and periodic acid Schiff (PAS) staining was performed to determine goblet cells. Proliferation of goblet cells was assessed by measuring the ratio of goblet cells to bronchial epithelial cells.
# In accordance with the method in <Experimental Example 7-2>, the ratio of goblet cells which were determined by periodic acid-Schiff staining to bronchial epithelial cells were measured to assess proliferation of goblet cells.
# [4] = tested on: alanine aminotransferase (ALT) and aspartate aminotransferase (AST) in serum; type: in vivo
# Method: as §1
# To examine liver toxicity of styraxlignolide A, a commercially available ELISA kit (BECKMAN Coulter, Inc., Fullerton, Calif., USA) was used to measure alanine aminotransferase (ALT) and aspartate aminotransferase (AST) in serum.
# [5] = tested on: inflammatory cells in bronchoalveolar lavage fluid; test: Inflammatory cell counts in bronchoalveolar lavage fluid (Diff-Quick staining); type: in vivo, Balb/c female mice; settings: asthma-induced mice
# Method: as §1
# Bronchoalveolar lavage fluid was collected from individuals of each experimental group in <Example 2> and right after the collection, fluid was stained with trypan blue. The number of total cells except dead cells was calculated using a hemocytometer. Then, Diff-Quick staining (Sysmex, Swizerland) was performed after smear preparation with Cytospin II, and eosinophils and other inflammatory cells were differentially counted.
# To examine the effect of homoegonol on asthma, variation in the numbers of asthma-related inflammatory cells was measured according to the method in <Experimental Example 3>.
# TGF-β1 = TGF-β1 in bronchoalveolar lavage fluid; type: in vivo, Balb/c female mice; settings: asthma-induced mice, homoegonol study; 30 mg/kg PO
# Method: as §1, §3
# [6] = tested on: inflammatory cells in the airway mucosa; test: Inflammatory cell infiltration in airway mucosa, inflammatory index (H&E staining); type: in vivo, Balb/c female mice; settings: asthma-induced mice, styraxlignolide A study; 30 mg/kg PO 1 hour prior to ovalbumin inhalation; scale 0-4
# [7] = tested on: fibrosis in subsegmental bronchi; test: Fibrosis in subsegmental bronchi (Masson's trichrome staining); type: in vivo, Balb/c female mice; settings: asthma-induced mice, styraxlignolide A study; 1 hour prior to ovalbumin inhalation
# Method: as §1
# reactive oxygen species = test: Reactive oxygen species generation in bronchoalveolar lavage fluid (2,7-dichlorofluorescein diacetate); type: in vivo, Balb/c female mice; parameters: dose or concentration left out as unconfirmed; settings: asthma-induced mice, styraxlignolide A study, 1 hour prior to ovalbumin inhalation
# Method: To prepare bronchial asthma-induced experimental animals, six-week-old Balb/c female mice of mean weight about 20 g were used. After one week of adaptation, individuals which had no observed abnormality on a basic physical examination were targeted. 200 μL of phosphate buffered saline (PBS)(pH 7.4) in which 2 mg of aluminum hydroxide (A8222, Sigma, St. Louis, Mo.) and 20 μg of ovalbumin (A5503, Sigma, St. Louis, Mo.) were suspended was injected into the peritoneal cavity at two-week intervals to result in sensitization. On days 28 to 30 after the first intraperitoneal administration of ovalbumin, inhalation challenge was performed for 30 min with 1% ovalbumin using an ultrasonic atomizer. 24 hours after the last antigen administration, airway hyperresponsiveness was measured. […]
# To measure the amount of generated reactive oxygen species caused by administration of styraxlignolide A, some bronchoalveolar lavage fluid of each individual in <Example 2> was washed with PBS, and 10 μM 2,7-dichlorofluorescein diacetate (35845, Sigma, St. Louis, Mo.) was added thereto and bronchoalveolar lavage fluid was allowed to stand still in a room temperature dark room for 10 min, and the amount of generated reactive oxygen species was measured by a spectrofluorometer (Ex=480 nm, Em=522 nm).
# [8] = styraxlignolide A study, 30 mg/kg PO 1 hour prior to ovalbumin inhalation
# [9] = homoegonol study, 30 mg/kg PO, bronchoalveolar lavage fluid
# [10] = homoegonol study, 30 mg/kg PO, bronchoalveolar lavage fluid, 30 mg/kg
# [11] = asthma-induced mice, styraxlignolide A study, 30 mg/mL PO 1 hour prior to ovalbumin inhalation
smiles,measurement,setting,value
"CC(C)(O)c1ccccc1CC[C@@H](SCC1(CC(=O)O)CC1)c1cccc(/C=C/c2ccc3ccc(Cl)cc3n2)c1 [Monte, montelukast, reference compound]",body weight,"[1]; homoegonol study, 30 mg/kg PO 1 hour prior to ovalbumin inhalation",21.08 ± 0.57 g
same,body weight,[1]; [8],21.04 ± 0.30 g
same,IL-17 concentrations in bronchoalveolar lavage fluid,IL-17,15.8409 ± 2.5686 pg/mL
same,Total IgE level in bronchoalveolar lavage fluid,ovalbumin-specific IgE; [9],104.7447 ± 9.7295 ng/mL
same,Total serum IgE level,"ovalbumin-specific IgE; homoegonol study, 30 mg/kg PO, serum, Table 2",16.22 ± 2.6329 µg/mL
same,Penh values,[2]; methacholine 0 mg/ml,0.6071 ± 0.0618
same,Penh values,[2]; methacholine 12.5 mg/ml,1.2979 ± 0.1537
same,Penh values,[2]; methacholine 25 mg/ml,1.4748 ± 0.1639
same,Penh values,[2]; methacholine 50 mg/ml,2.3069 ± 0.4225
same,numbers of eosinophils in bronchoalveolar lavage fluid,[3]; 30 mg/kg PO 1 hour prior to ovalbumin inhalation,60.67±6.58
same,Goblet cells %/bronchial epithelial cell unit,"goblet cells; homoegonol study, 30 mg/kg PO, 30 mg/kg",34.6476±11.5492%
same,serum ALT,"[4]; mouse, in vivo, po, 30 mg/kg",122.50±14.94 IU/L
same,serum AST,"[4]; mouse, in vivo, po, 30 mg/kg",205.00±27.17 IU/L
same,"Number of cells, Other inflammatory cells",[5]; [9],48.84 ± 3.7377 ×10^3 cells/mouse
same,"Number of cells, Eosinophils",[5]; [10],19.12±9.17 ×10^3 cells/mouse
same,"Number of cells, Total inflammatory cells",[5]; [10],67.96±15.0532 ×10^3 cells/mouse
same,numbers of total inflammatory cells in bronchoalveolar lavage fluid,[5]; [8],193.29±19.99
same,TGF-β1 concentrations in bronchoalveolar lavage fluid,TGF-β1,215.9375 ± 13.4334 pg/mL
COc1ccc(-c2cc3cc(CCCO[C@@H]4OC(CO[C@@H]5OC[C@@H](O)C(O)C5O)[C@@H](O)C(O)C4O)cc(OC)c3o2)cc1OC (stereo partly drawn) [styraxlignolide A],body weight,"[1]; styraxlignolide A study, 30 mg/mL PO 1 hour prior to ovalbumin inhalation",21.04 ± 0.34 g
same,peribronchiolar inflammatory index,[6],1.17±0.2
same,area of a fibrosis stained region per 100 μm of a basement membrane perimeter,[7],495.69±98.62 μm^2
same,"generated amount of reactive oxygen species, reduction compared to the asthma-induced group",reactive oxygen species,27.90%
same,Ovalbumin-specific IgE level in bronchoalveolar lavage fluid,"ovalbumin-specific IgE; styraxlignolide A study, 1 hour prior to ovalbumin inhalation, bronchoalveolar lavage fluid",15.4 ± 2.18 ng/mL
same,serum ovalbumin-specific IgE level,"ovalbumin-specific IgE; styraxlignolide A study, 1 hour prior to ovalbumin inhalation, serum, difference to asthma-induced group not significant",382 ± 60.60 ng/mL
same,Penh (enhanced pause) values compared to the comparative groups,"[2]; styraxlignolide A study, 30 mg/mL PO 1 hour prior to ovalbumin inhalation, methacholine 12.5, 25, or 50 mg/mL",reduced Penh values compared to the comparative groups
same,numbers of eosinophils in bronchoalveolar lavage fluid,[3]; 30 mg/mL PO 1 hour prior to ovalbumin inhalation,20.77±2.34
same,numbers of total inflammatory cells in bronchoalveolar lavage fluid,[3]; 1 hour prior to ovalbumin inhalation,147.83±12.61
same,ratio of goblet cells to bronchiolar epithelial cells,"goblet cells; styraxlignolide A study, 1 hour prior to ovalbumin inhalation",29.52±8.02%
same,serum ALT,[4]; [11],168.67±15.56 IU/L
same,serum AST,[4]; [11],245.33±12.87 IU/L
